Here are results for five compounds from EP1000543A1, “A method for inducing resistance of plants to mycotoxin-producing fungi” (PROGUARD, INC., priority 1994, dated 1996).

Data set [1] concerns Fusarium subglutinans f. sp. pini. Put plainly: bioassay based on inhibition of radial growth on potato dextrose agar (colony diameter). The data set is classed as cell-based, Fusarium subglutinans f. sp. pini (isolate SL-1, UCB). To be noted: for Radical Growth of Fusarium subglutinas f.sp. pini (colony diameter): 18° C, 5 days; for radical growth of Fusarium subglutinans: cinnamic aldehyde in vehicle with or without saponin, glutaraldehyde 2%. The procedure: A bioassay based on inhibition of radial growth of Fusarium subglutinans f. sp. pini was used to test various aldehyde formulations. The bioassay was performed in a double blind fashion under sterile conditions. All concentrations given are those of particular solutions before dilution in the agar. Eight ml of test formulation was pipetted into 200 ml of molten 2% potato dextrose agar (DIFCO), and the mixture was dispersed into 5 plastic petri dishes (25 ml dish). Test formulations of 5 ppm benomyl were used as a positive control and sterile H2O as a negative control. Each of four plates was inoculated at the center with an agar plug transferred from a growing PDA culture of Fusarium subglutinans f. sp. pini (isolate SL-1, UCB) for each test formulation. A fifth plate was left noninoculated as a control for inhibited growth.
All inoculated and non-inoculated plates were incubated at 18° C for 5 days, after which colony diameters were measured. […] No growth of the colony (diameter=0) indicates a maximum growth inhibition.

For data set [2] the following is noted: at 25°C; cited from earlier work.
Data set [3] can be described thus: vapor pressure. The data set is classed as physicochemical. To be noted: at 25°C.

Turning to `O=CCCCC=O` [Glutaraldehyde, reference compound], the “Radical Growth of Fusarium subglutinas f.sp. pini (colony diameter)” value (“Radical Growth … (colony diameter)” below) in data set [1] (2% glutaraldehyde, no Cinnamic Aldehyde) came out at 3.663. Moreover, the “radical growth of Fusarium subglutinans” value in data set [1] (result in words) is listed as “inhibited”.

As to `CCN(CC)c1cccc(C)c1` [N,N-diethyl-m-toluamine, reference compound], in data set [2], the vapor pressure is 167 x 10^-5 mm Hg.

For cinnamic aldehyde, the “Radical Growth … (colony diameter)” value came to 4.088 in data set [1] (Cinnamic Aldehyde 10 ppm in 2% Tween 80, 6% NaHCO3, with Saponin); 4.363 in data set [1] (Cinnamic Aldehyde 10 ppm in 2% Tween 80, 6% NaHCO3, no additive, concentration before dilution in agar); 4.300 in data set [1] (Cinnamic Aldehyde 100 ppm in 2% Tween 80, 6% NaHCO3, with Saponin); 4.238 in data set [1] (Cinnamic Aldehyde 100 ppm in 2% Tween 80, 6% NaHCO3, no additive, concentration before dilution in agar); 3.600 in data set [1] (Cinnamic Aldehyde 2,500 ppm in 2% Tween 80, 6% NaHCO3, with Saponin); 3.513 in data set [1] (Cinnamic Aldehyde 2,500 ppm in 2% Tween 80, 6% NaHCO3, no additive, concentration before dilution in agar). The “Radical Growth … (colony diameter)” value in data set [1] (Cinnamic Aldehyde 5000 ppm in 2% Tween 80, 6% NaHCO3, with Saponin) worked out at 2.913; in data set [1] (Cinnamic Aldehyde 5000 ppm in 2% Tween 80, 6% NaHCO3, no additive, concentration before dilution in agar), 2.980; in data set [1] (Cinnamic Aldehyde 12,500 ppm in 2% Tween 80, 6% NaHCO3, with Saponin) it was 0; in data set [1] (Cinnamic Aldehyde 12,500 ppm in 2% Tween 80, 6% NaHCO3, no additive, concentration before dilution in agar), 0; in data set [1] (Cinnamic Aldehyde 25,000 ppm in 2% Tween 80, 6% NaHCO3, with Saponin), 0; in data set [1] (Cinnamic Aldehyde 25,000 ppm in 2% Tween 80, 6% NaHCO3, no additive, concentration before dilution in agar) it was 0. Also, in data set [1] (result in words, at 12,500 ppm), the Radial growth result is “completely inhibited”. Also, in data set [1] (result in words), the “radical growth of Fusarium subglutinans” value is “inhibited”. Moreover, in data set [3], the “vapor pressure relative to HCA” value is on record as “approximately 40 times higher”. Also, in data set [2], the vapor pressure is 2970 x 10^-5 mm Hg.

Consider `CCCCCCC(C=O)=Cc1ccccc1` [HCA, 2-hexyl-3-phenyl-2-propenal], for which the vapor pressure in data set [2] is 70 x 10^-5 mm Hg.

For the compound `CCCCNC(=O)n1c(NC(=O)OC)nc2ccccc21` [Benomyl, reference compound], the “Radical Growth … (colony diameter)” value in data set [1] (positive control, 5 ppm benomyl, no Cinnamic Aldehyde) is given as 0.
